Entries after “also recorded” stand apart in the source; their conditions may differ. One block for each molecule: values may come before it.
What was measured:
NFAT1/DNA complex = biological target: T1, NFAT1/DNA complex (Homo sapiens, UniProt Q13469); experiment: In vitro photo-crosslinking of assembled NFAT1/DNA complex, denaturing SDS gel; type: biochemical; details: for formation of covalent NFAT1/DNA crosslinked complex stable under denaturing SDS-PAGE: probe + UV 365 nm, 2% SDS, boil 10 min
T1 construct: human NFAT1 protein (residue 399-676, NFAT1-DBD)
T1 sequence (Q13469 399-676): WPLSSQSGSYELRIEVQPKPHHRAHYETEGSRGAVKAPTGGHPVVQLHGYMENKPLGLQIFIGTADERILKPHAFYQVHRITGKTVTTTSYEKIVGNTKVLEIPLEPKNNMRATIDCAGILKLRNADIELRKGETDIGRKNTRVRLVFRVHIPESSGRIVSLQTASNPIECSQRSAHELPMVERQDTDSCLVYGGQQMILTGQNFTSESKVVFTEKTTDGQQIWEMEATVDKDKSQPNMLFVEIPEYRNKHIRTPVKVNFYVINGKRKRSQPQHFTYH
Method: The probe binding and UV crosslinking were carried out as described in FIG. 5G and FIG. 7. The crosslinked complexes (lane 3 and lane 6) were further treated with DTT (100 mM, heat 50 degree C. for 30 min). The reaction mixtures were run on SDS gel and visualized by FAM fluorescence for DNA (top) and by Coomassie blue stain for protein (bottom) as described in FIG. 7. FIG. 7 depicts denaturing SDS gel analysis of covalent capture of in vitro assembled MEF2/DNA and NFAT1/DNA complexes by the BFPX probe, SPB-AAD. […] The protein/DNA complexes are incubated at room temperature for 30 min, and treated with various combination of BFPX probe (SPB-AAD) and UV illumination as described in FIG. 5G. […] The reaction mixtures were added SDS loading dye (2% SDS), boil for 10 min, and run on SDS gel (Bio-Rad Any Kd gradient gel). The same gel was visualized by FAM fluorescence for DNA (top) and by Coomassie blue stain for protein (bottom). FIG. 8C depicts denaturing SDS gel analysis of covalent capture of in vitro assembled MEF2/DNA and NFAT1/DNA complexes by the BFPX probe, SPB-PEG3-AAD. […] The reaction mixtures were run on SDS gel and visualized by FAM fluorescence for DNA (top) and by Coomassie blue stain for protein (bottom) as described in FIG. 7. […] Typically protein and DNA are mixed to bind at room temperature for 30 min, followed by addition of BFPX probes for an additional 15 min and then UV illumination. In the case of FA treatment, the reaction time is 10 min at room temperature and then quenched by 250 mM glycine. […] The UV illumination (as indicated by a positive sign) was carried out using a LED Chip (21.4 mm×21.4 mm, 365-370 nm, 30 Watt, sample distance 2 cm, exposure time 2-15 min at 4 degree C., here the exposure time is 15 min). […] The small amount of single stranded DNA is due to incomplete annealing. The higher smearing bands are most likely non-specific protein complexes. Neither of these experimental imperfections affected the main conclusion of this experiment because the double stranded-DNA bands and the specific NFAT-DNA complex bands (the middle sharp bands) are well defined and can be monitored without the interference of the other bands. […] The gel was visualized by Cy5 fluorescence for DNA. FIG. 12E depicts further characterization of BFPX crosslinking of NFAT1/DNA complexes using different DNA substrates and staining techniques. Two unlabeled DNA substrates containing a core NFAT-binding site and different flanking bases and sequence lengths ([…] ID NO: 4), 21 mer, c2: [NT] ID NO: 5), 16 mer) were used to bind the NFAT1-DBD as described in FIG. 12C. […] The reactions were then analyzed by SDS PAGE under denaturing condition as described in FIG. 12D. Because the DNA is unlabeled, the gel was stained using either cyanine-based dye (SYBR Safe) or Coomassie Blue stain (CB). […] The different size of the NFAT-c1DNA complexes (lane 2) and NFAT-c2DNA complexes (lane 4) was resolved by loading reactions of lane 2 (2a, 2b and 2c) and lane 4 (4a, 4b and 4c) as triplicates side-by-side on the same gel (lower panel) using either SYBR and CB stain. FIG. 12F depicts time course of BFPX crosslinking of NFAT1/DNA complexes. […] The reactions at different time points were then analyzed on SDS gel as described in FIG. 12D. […] When the UV exposure time is longer than 5 min, a significant amount of crosslinked NFAT-DNA complex can be formed with UV illumination without SPB-AAD.

MEF2A/DNA complex = biological target: T2, MEF2A/DNA complex (Homo sapiens, UniProt Q02078); experiment: In vitro photo-crosslinking of assembled MEF2/DNA complex, read on denaturing SDS/urea gel or agarose gel; type: biochemical
T2 construct: human MEF2A DBD (residues 2-95); made in house
T2 sequence (Q02078 2-95): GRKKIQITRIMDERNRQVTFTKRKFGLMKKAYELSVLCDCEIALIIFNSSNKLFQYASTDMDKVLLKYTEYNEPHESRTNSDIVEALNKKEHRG
Excerpt: In vitro assays have confirmed the success and the efficiency of the demo probe (AMT-LC-SDA) in crosslinking double strand DNA of various contents and DNA-binding protein human myocyte enhancer factor 2A (MEF2A) (1-95 aa) (FIG. 5C-FIG. 5E). The solid crosslinking is confirmed for the probe with UV photo crosslinking conditions by denaturing or digestive approaches such as running with 8.3 M urea gel, SDS gel, combined with sample with overnight digestion of proteinase K at 65 Celsius and denatured at high temperature of 95 Celsius with SDS loading dye. […] Under these harsh evaluation conditions, the protein got digested on the crosslinking complex thoroughly, yet the remaining crosslinked amino acids residuals still have made the DNA to be in a larger size and shifted clearly compared to other controls, which is indicated by the bold shaped arrow. Agarose gel was also used for its bigger pore size to estimate the crosslinking efficiency (UV 2 hrs), estimated by the amount of the left free DNA, our probe has reached around 30-60% efficiency (FIG. 5E), which is much higher than the UV-initiated protein DNA crosslinking without the use of a probe (10-20%) as reported in Nature Communications, volume 11, Article number: 3019 (2020). […] This further supports the idea of applying this probe for replacement of formaldehyde, it crosslinks the protein only within the proximity of nucleic acids, thereby largely reducing the random protein-protein crosslinking noise and helps to preserve the native state of protein epitopes.
The BFPX probe 4AMT-LC-SDA was synthesized with good yield by the NHS-amine chemistry using psoralen and diazirine derivatives (FIG. 5A, FIG. 5B). To test its photo crosslinking ability, human transcription factor MEF2A (the MADS-box/MEF2 domain) and double strand DNA containing a MEF2 binding site were used. We first used electrophoresis mobility shift assay (EMSA) to validate the activity of the purified recombinant MEF2A DNA-binding domain. After finding out the optimal protein to DNA ratio, the in vitro assembled MEF2/DNA complex was then subject to photocrosslinking in the presence or absence of the 4AMT-LC-SDA probe with or without UV illumination. Multiple other control experiments were carried out in parallel to test the specificity of photocrosslinking between the DNA and MEF2. Specifically, parameters such as protein/DNA amounts (1:[…]), ratio, UV time (10 m to 4 hrs), wavelength (320 to 360 nm), LV source (mercury long lamp, LED) and their distance to the reaction mixture have been optimized along the course. The MEF2 Protein and DNA were incubated first to mimic an in vivo binding mode and stoichiometry, and then the mixture was incubated with our 4AMT-LC-SDA probe to undergo UV illumination. The results were evaluated by running denaturing gels (SDS in FIG. 5D, or Urea in FIG. 5C) against the high temperature denatured reaction mixtures and checking the respective protein (silver stain) or DNA (FAM label) signals. To further rule out any other possible false positiveness during loading, proteinase K digestion was applied to all the samples including the negative controls with SDS at 65 degrees.

[1] = biological target: double stranded DNA and RNA; details: cited from earlier work; for efficiency of covalent crosslinking to DNA: long-wavelength (˜360 nm) UV illumination
DNA binding by NFAT1 = biological target: T3, DNA binding by NFAT1 (Homo sapiens, UniProt Q13469); experiment: Native EMSA of the effect on DNA binding by NFAT1; type: biochemical; details: FIG. 12C; increasing concentrations; probes with UV 365 nm 15 min; compared to control lane 3
T3 construct: human NFAT1 protein (residue 399-676, NFAT1-DBD)
T3 sequence (Q13469 399-676): T1 sequence (Q13469 399-676)
Method: All binding reactions contain 10 μM 27 mer dsDNA (5′6-FAM labeled) with a NFAT-binding site, and various combinations of NFAT1 protein (14 μM), FA (1% v/v), 4AMT-LC-SDA (20 μM), with or without UV illumination (365 nm, LED, 30 Watt, sample distance 2 cm, exposure time 15 min at 4 degree C.). 10 μl of the binding reaction is run on a 10% PAGE 0.5×TBE gel. The same gel was visualized by FAM fluorescence for DNA (top) and by Coomassie blue stain for protein (bottom). The higher smearing bands in lane 3, 8, 9, and 10 are most likely non-specific protein complexes often seen when an excessive amount of protein is used to ensure all DNA is bound.
The binding reactions were performed in a buffer of 20 mM Hepes pH 7.6, 150 mM NaCl, 1 mM DTT, 12% glycerol. Typically protein and DNA are mixed to bind at room temperature for 30 min, followed by addition of BFPX probes for an additional 15 min and then UV illumination. In the case of FA treatment, the reaction time is 10 min at room temperature and then quenched by 250 mM glycine. When included (as indicated by a positive sign), the binding reaction contains 10 μM 27 mer dsDNA (Cy5-labeled) with a NFAT-binding site (the antigen receptor response element 2, ARRE2, from the IL-2 promoter, 5′-Cy5-[sequence]-3′ (SEQ ID NO: 2), the complementary strand is not labeled), 24 μM of the DNA binding domain (DBD) of human NFAT1 protein (residue 399-676, NFAT1-DBD). The UV illumination (as indicated by a positive sign) was carried out using a LED Chip (21.4 mm×21.4 mm, 365-370 nm, 30 Watt, sample distance 2 cm, exposure time 2-15 min at 4 degree C., here the exposure time is 15 min). Half of the binding reaction (7.5 μl) was run on a 10% PAGE 0.5×TBE gel and visualized by Cy5 fluorescence on DNA. The small amount of single stranded DNA is due to incomplete annealing. The higher smearing bands are most likely non-specific protein complexes. Neither of these experimental imperfections affected the main conclusion of this experiment because the double stranded-DNA bands and the specific NFAT-DNA complex bands (the middle sharp bands) are well defined and can be monitored without the interference of the other bands.
The presence of both DNA and protein in the same shifted band can be checked by the FAM fluorescence signal (top) and Coomassie stain (bottom), respectively (free NFAT is positively charged and not observable under the EMSA condition).

p53/DNA complex = biological target: T4, p53/DNA complex (Homo sapiens, UniProt P04637); experiment: BFPX crosslinking of p53/DNA complexes, SDS PAGE; type: biochemical; details: denaturing SDS PAGE; probes with UV; vs no-protein controls
T4 construct: the human tumor suppressor p53 DBD; made in house
T4 sequence (P04637 102-292 limits assumed, one chain of several): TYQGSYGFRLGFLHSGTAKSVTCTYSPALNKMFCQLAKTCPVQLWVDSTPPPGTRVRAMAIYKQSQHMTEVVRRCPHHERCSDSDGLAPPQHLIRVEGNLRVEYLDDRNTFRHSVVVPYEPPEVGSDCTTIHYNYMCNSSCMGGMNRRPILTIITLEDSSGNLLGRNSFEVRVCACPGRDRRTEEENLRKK
Method: FIG. 12I depicts BFPX crosslinking of p53/DNA complexes. The binding reactions between the human tumor suppressor p53 DBD and a 37 mer Cy5 labeled DNA containing a consensus p53 tetramer binding site (5′-/5Cy5/-[…]-3′, (SEQ ID NO: 8)) were set up and treated with BFPX probes and UV illumination as described in FIG. 12C. The various treatment combinations were list above the gel. The reactions were then analyzed by SDS PAGE under denaturing condition as described in FIG. 12D. […] Because p53 bind this this DNA substrate as a tetramer, crosslinked p53/DNA complexes may contain one or more p53 protein molecules. While the monomeric p53/DNA complex appears to be the dominant crosslinked protein-DNA complexes, higher-molecule weight species were visible in SDS gel, which may correspond to crosslinked higher-order p53/DNA complex.

Nkx2.5/DNA complex = biological target: T5, Nkx2.5/DNA complex (Homo sapiens, UniProt P52952); experiment: BFPX crosslinking of Nkx2.5/DNA complexes, SDS PAGE; type: biochemical; details: denaturing SDS PAGE; probes with UV
T5 construct: human Nkx2.5 DBD (the homeodomain); made in house
T5 sequence (P52952 138-197 limits assumed, one chain of several): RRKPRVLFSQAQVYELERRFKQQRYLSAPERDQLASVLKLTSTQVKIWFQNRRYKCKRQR
Method: FIG. 12H depicts BFPX crosslinking of Nkx2.5/DNA complexes. […] The various treatment combinations were list above the gel. The reactions were then analyzed by SDS PAGE under denaturing condition as described in FIG. 12D.

NFAT1 DNA binding domain = biological target: T6, NFAT1 DNA binding domain (Homo sapiens, UniProt Q13469 Q13469:399-676); experiment: SPB-AAD 100 uM + UV365 photocrosslinking, SDS-PAGE
T6 sequence: T1 sequence (Q13469 399-676)
Method: The UV illumination (as indicated by a positive sign) was carried out using a LED Chip (21.4 mm×21.4 mm, 365-370 nm, 30 Watt, sample distance 2 cm, exposure time 2-15 min at 4 degree C., here the exposure time is 15 min). Half of the binding reaction (7.5 μl) was run on a 10% PAGE 0.5×TBE gel and visualized by Cy5 fluorescence on DNA. The small amount of single stranded DNA is due to incomplete annealing. The higher smearing bands are most likely non-specific protein complexes. Neither of these experimental imperfections affected the main conclusion of this experiment because the double stranded-DNA bands and the specific NFAT-DNA complex bands (the middle sharp bands) are well defined and can be monitored without the interference of the other bands.
FIG. 12D depicts the other half of binding reaction from the above experiments (FIG. 12C) were added SDS loading dye (2% SDS), boil for 10 min, and run on SDS gel (4-15% gradient gel). The gel was visualized by Cy5 fluorescence for DNA.
FIG. 12E depicts further characterization of BFPX crosslinking of NFAT1/DNA complexes using different DNA substrates and staining techniques. […] The reactions were then analyzed by SDS PAGE under denaturing condition as described in FIG. 12D. […]

effect of DTT treatment on the crosslinked NFAT-DNA complex (NFAT1/DNA complex; 25 μM probe, DTT 100 mM, 50 degree C., 30 min, FIG. 5H): reduced significantly | formation of covalent MEF2/DNA crosslinked complex (MEF2A/DNA complex; probe + UV, denaturing gel): highly efficient crosslinking
Molecule: Cc1oc2c(C)c3oc(=O)cc(C)c3cc2c1CNC(=O)CCSSCCNC(=O)CCC1(C)N=N1 [4AMT-SDAD]
formation of covalent NFAT1/DNA crosslinked complex stable under denaturing SDS-PAGE (NFAT1/DNA complex; listed as 4AMT-LC-SDAD): highly efficient crosslinking; also recorded: crosslinked NFAT to its DNA substrate efficiently | release of crosslinked MEF2/DNA complexes by reductive cleavage (MEF2A/DNA complex; probe 10-100 μM, UV 15 min, 200 mM TCEP at 37° C. overnight): can be released by reductive cleavage of the disulfide bond

Molecule: O=c1ccc2cc3ccoc3cc2o1 [Psoralen, psoralen]
affinity for double stranded DNA and RNA [1]: μM (Kd) affinity | efficiency of covalent crosslinking to DNA [1]: up to 80%

effect on the binding of NFAT1 to DNA (DNA binding by NFAT1): little or no effect | apparent crosslinking efficiency (intensity of the complex band over the total DNA intensity) (NFAT1/DNA complex): 22.5% | crosslinking efficiency normalized against the total protein/DNA complex (NFAT1/DNA complex): ~47%
Molecule: CC1(CCC(=O)NCCCCCC(=O)NCCCCNCCCNC(=O)CCCOc2c3occc3cc3ccc(=O)oc23)N=N1 [SPB-Spermidine-AD, 6-(3-(3-methyl-3H-diazirin-3-yl)propanamido)-N-(4-((3-(4-((7-oxo-7H-furo[3,2-g]chromen-9-yl)oxy)butanamido)propyl)amino)butyl)hexanamide]
crosslinking of the p53/DNA complex (p53/DNA complex): significant crosslinking of the p53/DNA complex | crosslinking of the Nkx2.5/DNA complex (Nkx2.5/DNA complex): significant crosslinking of the Nkx2.5/DNA complex | formation of covalent NFAT1/DNA crosslinked complex stable under denaturing SDS-PAGE (NFAT1/DNA complex): dosage dependent crosslinking of NFAT1/DNA complexes

Molecule: Cc1oc2c(C)c3oc(=O)cc(C)c3cc2c1CN [4AMT, 4′-aminomethyltrioxsalen]
efficiency of covalent crosslinking to DNA [1]: up to 80%

B1: c1 NFAT 21-mer (dsDNA)
DNA 1: TTCCACAGAGGAAAATTTGTT
DNA 2: AACAAATTTTCCTCTGTGGAA
binding result (NFAT1 DNA binding domain): binds

From patent US20250388597A1, “BIFUNCTIONAL PHOTOCROSSLINKING PROBES FOR COVALENT CAPTURE OF PROTEIN-NUCLEIC ACID COMPLEXES IN CELLS” (UNIVERSITY OF SOUTHERN CALIFORNIA, priority 2022, published 2025)
